Measured values from patent US10618907B2, “Cell-permeable, cell-compatible, and cleavable linkers for covalent tethering of functional elements” (Promega Corporation, priority 2015, dated 2020).
Entries after “also recorded” stand apart in the source; their conditions may differ.

What was measured:
[1] = molecular target: T1, BTK:NLuc fusion (Homo sapiens, UniProt Q06187); assay: Capture efficiency of BTK:NLuc fusion onto HALOTAG coated magnetic beads; assay type: binding; details: cell lysate, 1 μM conjugate, 2 hour
T1 construct: expressed in transfected cells
T1 sequence (Q06187 whole entry, species assumed, the tested form may be a part): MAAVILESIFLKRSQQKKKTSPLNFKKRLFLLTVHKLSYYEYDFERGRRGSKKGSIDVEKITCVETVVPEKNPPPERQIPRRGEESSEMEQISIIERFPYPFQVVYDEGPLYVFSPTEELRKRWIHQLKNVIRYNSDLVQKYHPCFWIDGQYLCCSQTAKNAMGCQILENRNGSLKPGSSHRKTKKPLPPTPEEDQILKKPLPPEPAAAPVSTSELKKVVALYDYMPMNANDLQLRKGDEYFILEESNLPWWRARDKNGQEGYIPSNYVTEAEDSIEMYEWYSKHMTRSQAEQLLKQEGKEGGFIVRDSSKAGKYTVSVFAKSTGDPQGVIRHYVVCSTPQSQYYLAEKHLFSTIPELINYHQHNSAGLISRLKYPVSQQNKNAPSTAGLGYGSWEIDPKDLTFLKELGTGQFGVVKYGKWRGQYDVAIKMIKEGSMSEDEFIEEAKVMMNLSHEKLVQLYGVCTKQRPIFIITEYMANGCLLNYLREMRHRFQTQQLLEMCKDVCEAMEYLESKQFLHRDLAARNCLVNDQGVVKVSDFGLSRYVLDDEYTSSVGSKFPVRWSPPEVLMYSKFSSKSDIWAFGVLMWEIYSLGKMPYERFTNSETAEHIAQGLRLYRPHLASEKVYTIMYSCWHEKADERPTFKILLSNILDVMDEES
Description: To interrogate capture efficiency of an interacting cellular target, a known target of Ibrutinib, BTK, was genetically fused to NANOLUC (NLuc) luciferase reporter (Promega Corporation). Since Ibrutinib is a covalent inhibitor of BKT, a TEV recognition site was incorporated between BTK and NLuc to allow proteolytic release of NLuc from the beads. Following a 2 hour treatment of cell lysate (from cells expressing the BTK:NLuc fusion) with 1 μM Ibrutinib chloroalkane conjugates (final concentration), the Ibrutinib chloroalkane conjugates, and their interacting BTK:NLuc target, were captured onto HALOTAG coated magnetic beads (Promega Corporation). Capture efficiency was determined as the percent of lost in bioluminescence in the unbound fractions relative to the untreated cell lysate.

[2] = system: HALOTAG protein; details: 1 μM conjugate, up to 60 min, lysate of cells expressing HALOTAG fusion
Description: The 4 BIRB* conjugates were compared for binding kinetics to a HALOTAG protein in a cell lysate or inside live cells. Binding kinetics to HALOTAG in lysate was measured by adding the BIRB*-chloroalkane conjugates to a lysate prepared from cells expressing a HALOTAG fusion protein at a final concentration of 1 μM. After 0-60 minutes incubation, a fraction of each reaction taken at different time points (each containing a different BIRB* conjugate) was removed, HALGOTAG TMR-fluorescent ligand (Promega Corporation) was added to a final concentration of 1 μM and allowed to bind to the HALOTAG protein (which remained unbound). The time point fractions were resolved on SDS-PAGE and scanned on a Typhoon 9400 fluorescent imager (GE Healthcare). Bands were quantitated using IMAGEQUANT (GE Healthcare), and binding kinetics were determined as the percent binding with time relative to time zero when no chloroalkylated compound was added.
Binding kinetics to HALOTAG in lysate (FIG. 23A) was measured by treating a lysate prepared from cells, expressing a HALOTAG fusion protein, with the Ibrutinib chloroalkane conjugates at a final concentration of 1 μM for up 60 minutes. After a specified incubation time, an aliquot was removed and treated with HALOTAG TMR-fluorescent ligand (Promega Corporation) at a final concentration of 1 μM to label the remaining unbound HALOTAG fusion protein. The aliquots were resolved on SDS-PAGE and scanned on a Typhoon 9400 fluorescent imager (GE Healthcare). Bands were quantitated using IMAGEQUANT (GE Healthcare), and binding kinetics was determined as the percent binding over time relative to time zero when no chloroalkane-tagged compound added.
Binding kinetics to HALOTAG in lysate (FIG. 31A) were measured by treating a lysate prepared from cells expressing a HALOTAG fusion protein with the BIRB796 chloroalkane conjugates at a final concentration of 1 μM for up to 60 minutes. After a specified incubation time, an aliquot was removed and treated with HALOTAG TMR-fluorescent ligand (Promega Corporation) at a final concentration of 1 μM to label the remaining unbound HALOTAG fusion protein. The aliquots were resolved on SDS-PAGE and scanned on a Typhoon 9400 fluorescent imager (GE Healthcare). Bands were quantitated using IMAGEQUANT (GE Healthcare), and binding kinetics was determined as the percent binding over time relative to time zero where no chloroalkane-tagged compound was added.

[3] = system: TNFα secretion in LPS stimulated THP-1 cells; assay: Inhibition of TNFα secretion in LPS stimulated THP-1 cells (ELISA); assay type: cell-based, human; details: 2 h compound, LPS 250 ng/ml 24 h
Description: Bioactivity was measured through inhibition of TNFα secretion in LPS stimulated THP-1 cells (FIGS. 8A-8C). THP-1 cells were plated into wells of 96-well plates at 100,000 cells/well, treated with serial dilutions of BIRB796 conjugates for 2 hours, and then stimulated for 24 hours with LPS (Sigma) at final concentration of 250 ng/ml. The supernatant was analyzed for human TNFα secretion by ELISA (R&D Systems). […] Thus, it imposes minimal impact on the chloroalkane features.
Inhibition of mitogen-activated protein kinases (MAPK) by BIRB796 reduces production of proinflammatory cytokines such as TNFα. Influence of the linkers on BIRB796 potency was tested by comparing the BIRB796 conjugates for inhibition of TNFα secretion from LPS-stimulated THP-1 cells (FIG. 32). THP-1 cells were plated in 96-well plates at 100,000 cells/well, treated with serial dilutions of BIRB796 (Cayman Chemical) and BIRB796-chloroalkane conjugates for 2 h, and then stimulated with LPS (Sigma) at final concentration of 250 ng mL−1 for 24 h. Supernatants were analyzed for human TNFα secretion by ELISA (R&D systems). Results indicates inverse correlation between the length of the cleavable chloroalkane linker and its influence on BIRB796 potency.

[4] = molecular target: T1, BTK:NLuc fusion; assay: Release of captured BTK:NLuc from HALOTAG beads by TEV or palladium-catalyzed cleavage, western; details: anti-NLuc antibody
Description: To interrogate the efficiency of palladium-catalyzed cleavage of these linkers, the release of BTK:NLuc fusion covalently captured onto the HALOTAG beads was determined by two methods: i) TEV proteolytic cleavage and ii) palladium-catalyzed cleavage (FIG.
24B). TEV proteolytic cleavage of the fusion would lead to the release of NLuc while palladium catalyzed cleavage of the allyl carbamate group within the chloroalkane linker would result with the release of BTK:NLuc.

[5] = molecular target: purified ABL1 (Homo sapiens, UniProt P00519); assay: Inhibition of purified ABL1 by ponatinib conjugates; assay type: biochemical
Chain of purified ABL1 (P00519 whole entry, species assumed): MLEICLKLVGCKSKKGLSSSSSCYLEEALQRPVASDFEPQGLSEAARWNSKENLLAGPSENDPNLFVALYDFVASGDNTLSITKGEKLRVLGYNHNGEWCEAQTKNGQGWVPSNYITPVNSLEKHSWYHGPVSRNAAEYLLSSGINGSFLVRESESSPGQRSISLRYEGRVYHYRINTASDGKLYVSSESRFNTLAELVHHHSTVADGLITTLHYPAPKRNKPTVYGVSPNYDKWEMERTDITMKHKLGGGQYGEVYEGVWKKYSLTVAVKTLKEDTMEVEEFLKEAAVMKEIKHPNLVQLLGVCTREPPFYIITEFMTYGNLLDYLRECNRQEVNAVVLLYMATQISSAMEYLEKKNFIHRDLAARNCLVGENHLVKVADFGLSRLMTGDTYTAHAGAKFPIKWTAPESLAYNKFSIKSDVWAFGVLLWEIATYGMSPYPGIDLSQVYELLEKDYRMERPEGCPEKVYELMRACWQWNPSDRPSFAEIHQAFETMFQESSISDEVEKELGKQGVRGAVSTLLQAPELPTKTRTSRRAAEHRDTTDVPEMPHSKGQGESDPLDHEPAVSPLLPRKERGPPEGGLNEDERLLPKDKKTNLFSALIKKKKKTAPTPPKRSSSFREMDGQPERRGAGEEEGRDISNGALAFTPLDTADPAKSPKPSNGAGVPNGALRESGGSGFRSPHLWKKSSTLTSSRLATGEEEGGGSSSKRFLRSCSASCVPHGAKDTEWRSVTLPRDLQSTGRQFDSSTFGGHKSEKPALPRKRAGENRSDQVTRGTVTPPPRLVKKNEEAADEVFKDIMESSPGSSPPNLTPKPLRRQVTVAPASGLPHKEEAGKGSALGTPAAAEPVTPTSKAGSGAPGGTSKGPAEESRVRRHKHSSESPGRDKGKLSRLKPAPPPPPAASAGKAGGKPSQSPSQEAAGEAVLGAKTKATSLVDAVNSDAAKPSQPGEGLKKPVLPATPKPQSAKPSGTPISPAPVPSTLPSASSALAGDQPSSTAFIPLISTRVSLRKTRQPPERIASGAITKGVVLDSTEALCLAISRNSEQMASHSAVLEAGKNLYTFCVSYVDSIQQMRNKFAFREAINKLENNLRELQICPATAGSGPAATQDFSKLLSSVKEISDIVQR
Source text: (§1) Two additional linkers were generated, one where the three other carbamates were replaced with amides, and the other where the two allyl carbamate groups were replaced with allyl ether linkages. […] The linkers were compared for their influence on binding to HALOTAG and ABL1 in biochemical and cellular assays.

[6] = system: STATS reporter expression; assay: In-cell inhibition of STATS reporter expression by ponatinib conjugates; assay type: cell-based; details: cellular assay
Source text: as §1, with “CA-T4E contains 4 carbamate groups, one of them essential for rapid binding kinetics to HALOTAG. Two” for “Two”

[7] = system: HALOTAG protein; details: 10 μM conjugate, up to 90-120 min, live cells expressing HALOTAG
Description: Binding kinetics to HALOTAG inside cells was measured by treating live cells expressing a HALOTAG protein with the BIRB* chloroalkane conjugates at a final concentration of 10 μM. After 0-120 minutes incubation time points, the medium was replaced with medium containing 5 μM HALOTAG TMR-fluorescent ligand, and the cells were incubated for additional 15 minutes allowing the TMR-fluorescent ligand to bind to the HALOTAG protein (which remained unbound). After the media was removed, the cells were lysed with a detergent lysis buffer, and the time points were analyzed as described above.
Both conjugates were compared for binding kinetics to HALOTAG inside live cells and for bioactivity. Binding kinetics to HALOTAG inside cells was measured by treating live cells expressing a HALOTAG protein with the BIRB796 chloroalkane conjugates at a final concentration of 10 μM. […] Bands were quantitated, and the binding kinetics were determined as the percent binding with time relative to time zero when no chloroalkylated compound was added.
Binding kinetics to HALOTAG inside cells (FIG. 23B) was measured by treating live cells, expressing a HALOTAG fusion protein, with the Ibrutinib chloroalkane conjugates at a final concentration of 10 μM for up to 90 minutes. […] Cells were then lysed with a detergent lysis buffer, and the samples at the various time points were analyzed as described above. […]

| SMILES | capture efficiency of BTK:NLuc [1] | binding kinetics to HALOTAG in lysate [2] | further results |
| --- | --- | --- | --- |
| Nc1ncnc2c1c(-c1ccc(Oc3ccccc3)cc1)nn2[C@@H]1CCCN(C(=O)/C=C/CNC(=O)OC/C=C\COC(=O)NCCOCCOCCOC(=O)NCCOCCOCCCCCCCl)C1 [PBI-6030] | did not interfere with capture efficiency |  |  |
| Nc1ncnc2c1c(-c1ccc(Oc3ccccc3)cc1)nn2[C@@H]1CCCN(C(=O)/C=C/CNC(=O)OC/C=C\COCCOC(=O)NCCOCCOCCCCCCCl)C1 [PBI-6025] | reduced capture efficiency relative to PBI-6040 |  |  |
| Nc1ncnc2c1c(-c1ccc(Oc3ccccc3)cc1)nn2[C@@H]1CCCN(C(=O)/C=C/CNC(=O)OC/C=C/COC(=O)NCCOCCOCCOC(=O)NCCOCCOCCCCCCCl)C1 [PBI-6029] | did not interfere with capture efficiency |  |  |
| CC(C)(C)c1cc(NC(=O)Nc2ccc(OCCN3CCOCC3)c3ccccc23)n(-c2cccc(CNC(=O)OC/C=C/COC(=O)NCCOCCOCCOC(=O)NCCOCCOCCCCCCCl)c2)n1 [CA-T3E] |  | faster binding to HALOTAG than respective linkers with a cis-double bond |  |
| Nc1ncnc2c1c(-c1ccc(Oc3ccccc3)cc1)nn2[C@@H]1CCCN(C(=O)/C=C/CNC(=O)OC/C=C/COCCOC(=O)NCCOCCOCCCCCCCl)C1 [PBI-6027] | reduced capture efficiency relative to PBI-6040 |  |  |
| CC(C)(C)c1cc(NC(=O)Nc2ccc(OCCN3CCOCC3)c3ccccc23)n(-c2cccc(CNC(=O)OCCOCCOCCNC(=O)OC/C=C/COC(=O)NCCOCCOCCOC(=O)NCCOCCOCCCCCCCl)c2)n1 [BIRB796-CA-T4E] |  | faster binding to HALOTAG than respective linkers with a cis-double bond; also recorded: most similar to the non-cleavable linker CA-T1 | inhibition of TNFα secretion (potency) [3]: potency similar to non-cleavable linker CA-T1 |
| Nc1ncnc2c1c(-c1ccc(Oc3ccccc3)cc1)nn2[C@@H]1CCCN(C(=O)/C=C/CNC(=O)OC/C=C\COC(=O)NCCOCCOCCCCCCCl)C1 [PBI-6041] | reduced capture efficiency relative to PBI-6040 | lower binding kinetics to HALOTAG | release of NLuc by TEV proteolytic cleavage [4]: lower release |
| CC(C)(C)c1cc(NC(=O)Nc2ccc(OCCN3CCOCC3)c3ccccc23)n(-c2cccc(CNC(=O)OC/C=C\COC(=O)NCCOCCOCCCCCCCl)c2)n1 [CA-T0] |  | lower binding kinetics to HALOTAG |  |
| CC(C)(C)c1cc(NC(=O)Nc2ccc(OCCN3CCOCC3)c3ccccc23)n(-c2cccc(CNC(=O)OCCOCCOCCNC(=O)OC/C=C\COC(=O)NCCOCCOCCOC(=O)NCCOCCOCCCCCCCl)c2)n1 [CA-T4Z] |  |  | inhibition of TNFα secretion (potency) [3]: potency similar to non-cleavable linker CA-T1 |
| Cc1ccc(C(=O)Nc2ccc(CN3CCN(CCCNC(=O)CCOCCOCCC(=O)NC/C=C/CNC(=O)CCOCCOCCOC(=O)NCCOCCOCCCCCCCl)CC3)c(C(F)(F)F)c2)cc1C#Cc1cnc2cccnn12 [ponatinib-tri-amide] |  |  | inhibition of purified ABL1 [5]: comparable inhibition of purified ABL1; decrease of ponatinib potency relative to CA-T4E and all PEG linkers [6]: 20 fold; binding kinetics to HALOTAG inside live cells (cellular permeability) [7]: reduced binding kinetics to intracellular HALOTAG |
| CC(C)(C)c1cc(NC(=O)Nc2ccc(OCCN3CCOCC3)c3ccccc23)n(-c2cccc(CNC(=O)OC/C=C/COCCOC(=O)NCCOCCOCCCCCCCl)c2)n1 [CA-T2E] |  | faster binding to HALOTAG than respective linkers with a cis-double bond |  |
